Series [1] deals with ATP-dependent translocase ABCB1 (Homo sapiens, UniProt P08183). The series can be described thus: Inhibition of p-glycoprotein in docetaxel-resistant human PC-3 cells assessed as inhibition of calcein excretion at 0.39 to 50 uM incubated for 30 mins by fluorescence based plate reader analysis. It counts as cell-based. The following applies: pc-3, 0.5 h, dose 0.39-50 µM.
For the next series, the system named is PNT2. The series can be described thus: Cytotoxicity against human PNT2 cells assessed as reduction in cell viability at <= 100 uM incubated for 48 hrs by MTT assay. It counts as toxicity, cell-based. The following applies: pnt2, 48 h. For orientation: Tetrazolium assays rely on reduction of a dye to a coloured formazan, in cell work by metabolically active cells.

For the next series, the system named is RWPE-1. The series can be described thus: Cytotoxicity against human RWPE-1 cells assessed as reduction in cell viability at <= 100 uM incubated for 48 hrs by MTT assay. It counts as toxicity, cell-based. The note with it: rwpe-1, 48 h.
For series [2], the system named is PC-3. As to the kind of experiment: Synergistic cytotoxicity against docetaxel-resistant human PC-3 cells assessed as reduction in cell viability at 12.5 to 100 uM incubated for 48 hrs in the presence of docetaxel by MTT assay. It counts as functional, cell-based. The following applies: dose 12.5-100 µM.
The subject of series [3] is PC-3. The series can be described thus: Cytotoxicity against docetaxel-resistant human PC-3 cells assessed as reduction in cell viability at 0.5 to 64 uM pretreated with tariquidar for 1 hrs followed by compound addition and measured after 48 hrs by MTT assay. It counts as functional, cell-based. The note with it: dose 0.5-64 µM.

Activity calls are given as the source filed them. No cut-off for these calls is given here.

Chain of ATP-dependent translocase ABCB1 (P08183 whole entry): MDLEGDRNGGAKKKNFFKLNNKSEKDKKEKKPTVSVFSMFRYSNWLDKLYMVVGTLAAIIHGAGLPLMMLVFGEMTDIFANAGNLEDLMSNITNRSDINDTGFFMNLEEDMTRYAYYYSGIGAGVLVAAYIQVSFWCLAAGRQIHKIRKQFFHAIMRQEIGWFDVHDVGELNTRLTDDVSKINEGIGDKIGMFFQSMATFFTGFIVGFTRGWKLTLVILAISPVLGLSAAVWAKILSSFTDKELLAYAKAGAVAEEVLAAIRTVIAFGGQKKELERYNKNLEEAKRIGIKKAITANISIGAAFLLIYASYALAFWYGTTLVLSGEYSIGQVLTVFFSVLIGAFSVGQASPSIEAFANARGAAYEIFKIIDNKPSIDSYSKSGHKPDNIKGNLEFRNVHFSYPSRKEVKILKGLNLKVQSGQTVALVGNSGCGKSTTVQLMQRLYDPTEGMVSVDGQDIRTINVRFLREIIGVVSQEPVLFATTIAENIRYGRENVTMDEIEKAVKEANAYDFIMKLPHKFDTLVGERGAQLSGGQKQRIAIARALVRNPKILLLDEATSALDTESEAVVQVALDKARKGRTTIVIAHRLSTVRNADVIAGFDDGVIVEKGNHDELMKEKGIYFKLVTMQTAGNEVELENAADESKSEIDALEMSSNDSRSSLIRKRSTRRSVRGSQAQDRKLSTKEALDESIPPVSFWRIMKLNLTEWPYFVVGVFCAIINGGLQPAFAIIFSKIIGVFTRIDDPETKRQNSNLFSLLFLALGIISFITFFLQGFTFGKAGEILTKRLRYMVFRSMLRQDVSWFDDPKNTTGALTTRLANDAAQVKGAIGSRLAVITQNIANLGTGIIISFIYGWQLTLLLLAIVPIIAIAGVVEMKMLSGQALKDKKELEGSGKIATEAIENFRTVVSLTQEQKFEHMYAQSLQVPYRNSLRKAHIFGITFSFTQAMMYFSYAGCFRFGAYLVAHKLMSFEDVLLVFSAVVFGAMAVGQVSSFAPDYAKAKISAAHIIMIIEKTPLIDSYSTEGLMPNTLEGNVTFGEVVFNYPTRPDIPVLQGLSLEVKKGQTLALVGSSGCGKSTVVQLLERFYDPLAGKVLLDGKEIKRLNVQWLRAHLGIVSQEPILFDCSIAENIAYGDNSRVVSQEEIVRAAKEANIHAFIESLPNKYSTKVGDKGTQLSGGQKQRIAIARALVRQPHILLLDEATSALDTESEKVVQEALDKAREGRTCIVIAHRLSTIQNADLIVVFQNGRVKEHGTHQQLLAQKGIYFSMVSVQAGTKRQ

Take `COC(=O)[C@H]1C(=O)O[C@]2(/C=C(\C)C(C)=O)[C@]34CC[C@H](OC(C)=O)C(C)(C)[C@H]3[C@H](C[C@]12C)OC4=O`: the “inhibition (INH)” value in series [1] was “Active”. Also, the Activity result in the series on PNT2 and with RWPE-1 was “Non-Toxic” throughout. Besides, the outcome in the series on PC-3 [2] was Active.
As to `COC(=O)[C@@]12C(=O)C(=O)O[C@@]3(C=C1C)[C@]2(C)C[C@@H]1OC(=O)[C@]32CC[C@H](OC(C)=O)C(C)(C)[C@@H]12`, in series [1], the “inhibition (INH)” value was “Active”. Besides, the Activity entry in the series with PNT2 and with RWPE-1 was “Non-Toxic” throughout. Besides, in the series with PC-3 [2], the outcome was Active.
Take `COC(=O)[C@@]1(C(=O)C(C)=O)C(C)=C(C)C=C2[C@]34CC[C@H](OC(C)=O)C(C)(C)[C@H]3[C@H](C[C@@]21C)OC4=O`: the “inhibition (INH)” value in series [1] is recorded as “Active”. For the same compound, the Activity result in the series on PNT2 and in the series with RWPE-1 was “Non-Toxic” in each case. In addition, in the series with PC-3 [2], the result was Active.
With `C=C1C=C2[C@]34CC[C@H](OC(C)=O)C(C)(C)[C@H]3[C@H](C[C@]2(C)[C@]2(C(=O)OC)C(=O)[C@](C)(O)C(=O)[C@]12C)OC4=O`, in series [1], the “inhibition (INH)” value is “Active”. In addition, the Activity result in the series on PNT2 and in the series on RWPE-1 was “Non-Toxic” throughout. Further, the result in the series on PC-3 [2] was Active.
As to `CC(=O)O[C@@]12CO[C@@H]1C[C@H](O)[C@@]1(C)C(=O)[C@H](O)C3=C(C)[C@@H](OC(=O)[C@H](O)[C@@H](NC(=O)OC(C)(C)C)c4ccccc4)C[C@@](O)([C@@H](OC(=O)c4ccccc4)[C@H]21)C3(C)C`, the result in the series with PC-3 [3] was Active.

The values above are taken from ChEMBL document CHEMBL5215004, “Meroantarctines A-C, Meroterpenoids with Rearranged Skeletons from the Alga-Derived Fungus Penicillium antarcticum KMM 4685 with Potent p-Glycoprotein Inhibitory Activity” (J Nat Prod, 2022).
